{"source": "patent US20050032822A1", "about": "“Dithiocarbamate derivatives and their use as antibacterial agents” (priority 2001, published 2005)", "test_system": "M. tuberculosis H37Rv and two drug-resistant clinical isolates", "assay": "MIC and MBC against M. tuberculosis in liquid Shkolnikova medium / Lowenstein-Jensen medium", "format": "cell-based, Mycobacterium tuberculosis", "details": "for MIC (minimal inhibitory concentration) against Mycobacterium tuberculosis: mean values of the three strains (H37Rv and two drug-resistant clinical isolates), 14 days at 37° C.; for MBC (minimal bactericidal concentration) against Mycobacterium tuberculosis: mean values of the three strains, read after 21-28 days on solid drug free Lowenstein-Jensen medium"}
{"molecule": "4-isopropylamino-6-diethyldithiocarbamoyl-5-nitropyrimidine [Subst. Nr. 1]", "values": [{"measurement": "MIC (minimal inhibitory concentration) against Mycobacterium tuberculosis", "result": 31.3, "unit": "µg/mL"}, {"measurement": "MBC (minimal bactericidal concentration) against Mycobacterium tuberculosis", "result": 100.0, "unit": "µg/mL"}]}
{"molecule": "CCN(CC)C(=S)Sc1ncnc(NC2CC2)c1[N+](=O)[O-]", "note": "[Subst. Nr. 2, 4-cyclopropylamino-6-diethyldithiocarbamoyl-5-nitropyrimidine]", "values": [{"measurement": "MIC (minimal inhibitory concentration) against Mycobacterium tuberculosis", "result": 20.8, "unit": "µg/mL"}, {"measurement": "MBC (minimal bactericidal concentration) against Mycobacterium tuberculosis", "result": 29.1, "unit": "µg/mL"}]}
{"molecule": "CCN(CC)C(=S)Sc1c(C#N)cc([N+](=O)[O-])cc1[N+](=O)[O-]", "note": "[Subst. Nr. 3, 3,5-dinitro-2-diethyldithiocarbamoylbenzonitril]", "values": [{"measurement": "MIC (minimal inhibitory concentration) against Mycobacterium tuberculosis", "result": 5.37, "unit": "µg/mL"}, {"measurement": "MBC (minimal bactericidal concentration) against Mycobacterium tuberculosis", "result": 7.29, "unit": "µg/mL"}]}
{"molecule": "CCN(CC)C(=S)Sc1ncnc(NC)c1[N+](=O)[O-]", "note": "[Subst. Nr. 4, 4-methylamino-6-diethyldithiocarbamoyl-5-nitropyrimidine]", "values": [{"measurement": "MIC (minimal inhibitory concentration) against Mycobacterium tuberculosis", "result": 6.25, "unit": "µg/mL"}, {"measurement": "MBC (minimal bactericidal concentration) against Mycobacterium tuberculosis", "result": 12.5, "unit": "µg/mL"}]}
{"molecule": "CCN(CC)C(=S)Sc1ncnc(N(C)O)c1[N+](=O)[O-]", "note": "[Subst. Nr. 5, 4-methylhydroxyamino-6-diethyldithiocarbamoyl-5-nitropyrimidine]", "values": [{"measurement": "MIC (minimal inhibitory concentration) against Mycobacterium tuberculosis", "result": 9.38, "unit": "µg/mL"}, {"measurement": "MBC (minimal bactericidal concentration) against Mycobacterium tuberculosis", "result": 12.5, "unit": "µg/mL"}]}
{"molecule": "CCOc1nc(C)nc(SC(=S)N(CC)CC)c1[N+](=O)[O-]", "note": "[Subst. Nr. 6, 4-ethoxy-2-methyl-6-diethyldithiocarbamoyl-5-nitropyrimidine]", "values": [{"measurement": "MIC (minimal inhibitory concentration) against Mycobacterium tuberculosis", "result": 20.8, "unit": "µg/mL"}, {"measurement": "MBC (minimal bactericidal concentration) against Mycobacterium tuberculosis", "result": 41.7, "unit": "µg/mL"}]}
{"molecule": "CNc1ncnc(SC(=S)N(C)C)c1[N+](=O)[O-]", "note": "[Subst. Nr. 7, 4-methylamino-6-dimethyldithiocarbamoyl-5-nitropyrimidine]", "values": [{"measurement": "MIC (minimal inhibitory concentration) against Mycobacterium tuberculosis", "result": 7.78, "unit": "µg/mL"}, {"measurement": "MBC (minimal bactericidal concentration) against Mycobacterium tuberculosis", "result": 10.42, "unit": "µg/mL"}]}
{"molecule": "CN(C)C(=S)Sc1ncnc(N(C)C)c1[N+](=O)[O-]", "note": "[Subst. Nr. 8, 4-dimethylamino-6-dimethyldithiocarbamoyl-5-nitropyrimidine]", "values": [{"measurement": "MIC (minimal inhibitory concentration) against Mycobacterium tuberculosis", "result": 7.81, "unit": "µg/mL"}, {"measurement": "MBC (minimal bactericidal concentration) against Mycobacterium tuberculosis", "result": 12.5, "unit": "µg/mL"}]}
{"molecule": "CN(C)C(=S)Sc1c(C#N)cc([N+](=O)[O-])cc1[N+](=O)[O-]", "note": "[Subst. Nr. 9, 3,5-dinitro-2-dimethyldithiocarbamoylbenzonitrile]", "values": [{"measurement": "MIC (minimal inhibitory concentration) against Mycobacterium tuberculosis", "result": 4.78, "unit": "µg/mL"}, {"measurement": "MBC (minimal bactericidal concentration) against Mycobacterium tuberculosis", "result": 6.25, "unit": "µg/mL"}]}
{"molecule": "CCOc1nc(C)nc(SC(=S)N2CCCC2)c1[N+](=O)[O-]", "note": "[Subst. Nr. 10, 4-ethoxy-2-methyl-6-tetramethylenedithiocarbamoyl-5-nitropyrimidine]", "values": [{"measurement": "MIC (minimal inhibitory concentration) against Mycobacterium tuberculosis", "result": 5.21, "unit": "µg/mL"}, {"measurement": "MBC (minimal bactericidal concentration) against Mycobacterium tuberculosis", "result": 8.33, "unit": "µg/mL"}]}
{"molecule": "CCCOc1ncnc(SC(=S)N(C)C)c1[N+](=O)[O-]", "note": "[Subst. Nr. 11, 4-propoxy-6-dimethyldithiocarbamoyl-5-nitropyrimidine]", "values": [{"measurement": "MIC (minimal inhibitory concentration) against Mycobacterium tuberculosis", "result": 9.37, "unit": "µg/mL"}, {"measurement": "MBC (minimal bactericidal concentration) against Mycobacterium tuberculosis", "result": 12.5, "unit": "µg/mL"}]}
{"molecule": "CNc1ncnc(SC(=S)N2CCCC2)c1[N+](=O)[O-]", "note": "[Subst. Nr. 12, 4-methylamino-6-tetramethylenedithiocarbamoyl-5-nitropyrimidine]", "values": [{"measurement": "MIC (minimal inhibitory concentration) against Mycobacterium tuberculosis", "result": 3.64, "unit": "µg/mL"}, {"measurement": "MBC (minimal bactericidal concentration) against Mycobacterium tuberculosis", "result": 8.33, "unit": "µg/mL"}]}
{"molecule": "CN(C)c1ncnc(SC(=S)N2CCCC2)c1[N+](=O)[O-]", "note": "[Subst. Nr. 13, 4-dimethylamino-6-tetramethylenedithiocarbamoyl-5-nitropyrimidine]", "values": [{"measurement": "MIC (minimal inhibitory concentration) against Mycobacterium tuberculosis", "result": 3.12, "unit": "µg/mL"}, {"measurement": "MBC (minimal bactericidal concentration) against Mycobacterium tuberculosis", "result": 6.25, "unit": "µg/mL"}]}
